The text below walks through data of ChEMBL document CHEMBL1201862, “PubChem BioAssay data set” (2004).

SMILES strings stand for the structures. Calls of active or inactive are those of the source.

A short description of test [1]: ARNT/TACC3 interaction disruptors, potency, confirmation, biochemical, AlphaScreen, cherry-picked samples (AID 651703).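 Also: His-tagged ARNT PAS-B domain paired with GST-TACC3 E629A dimer coactivator fragment; potency of inhibitors that break up the complex and lower AlphaScreen signal.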 It counts as functional, Homo sapiens. In general terms: Bead proximity is the source of the signal in Alpha formats.
Test [2] can be described thus: NIH-3T3 fibroblast cytotoxicity, dose response, cytotoxicity control, cell-based, fluorescence, Alamar Blue, secondary assay (AID 2327).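 Also: NIH-3T3 mouse fibroblasts cultured with fluconazole at 8 µg/mL.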 It counts as functional.
The next test has as its target Genome polyprotein (dengue virus type 2, UniProt P29990). Briefly: Dengue-2 NS5 methyltransferase inhibitors, primary screen, biochemical, confirmation dose response (AID 588689). It is filed as functional.
Test [3] has as its target T1, Zinc finger protein mex-5 (Caenorhabditis elegans, UniProt Q9XUB2).
T1 sequence (Q9XUB2 whole entry): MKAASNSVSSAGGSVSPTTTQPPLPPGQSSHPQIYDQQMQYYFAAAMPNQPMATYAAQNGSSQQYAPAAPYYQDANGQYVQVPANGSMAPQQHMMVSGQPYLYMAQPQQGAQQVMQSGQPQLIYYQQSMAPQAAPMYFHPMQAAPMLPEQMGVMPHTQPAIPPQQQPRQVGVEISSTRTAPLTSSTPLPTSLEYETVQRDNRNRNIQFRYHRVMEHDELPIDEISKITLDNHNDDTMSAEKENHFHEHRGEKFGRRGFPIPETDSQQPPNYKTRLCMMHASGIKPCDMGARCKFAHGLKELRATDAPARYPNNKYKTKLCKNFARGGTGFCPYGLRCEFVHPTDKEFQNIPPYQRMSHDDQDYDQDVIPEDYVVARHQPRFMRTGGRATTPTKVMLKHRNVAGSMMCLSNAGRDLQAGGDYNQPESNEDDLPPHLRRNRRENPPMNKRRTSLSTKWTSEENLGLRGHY
Briefly: MEX-5/TCR-2 RNA interaction inhibitors, dose response, biochemical, C. elegans, fluorescence polarization (AID 1960). Background: Fluorescence polarisation rises when a labelled molecule tumbles more slowly, as on binding a larger partner.

Test [4] concerns the target T2, RNA-binding protein pos-1 (Caenorhabditis elegans, UniProt G5EF15).
T2 sequence (G5EF15 whole entry): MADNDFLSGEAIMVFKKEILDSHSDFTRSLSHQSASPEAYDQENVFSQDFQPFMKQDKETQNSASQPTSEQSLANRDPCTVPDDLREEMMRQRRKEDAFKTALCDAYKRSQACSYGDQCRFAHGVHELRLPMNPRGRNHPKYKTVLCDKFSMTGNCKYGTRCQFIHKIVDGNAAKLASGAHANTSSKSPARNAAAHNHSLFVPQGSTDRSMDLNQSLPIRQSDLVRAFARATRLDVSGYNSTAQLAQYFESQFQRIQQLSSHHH
Briefly: inhibitors of POS-1/mex-3 RNA binding, dose response, biochemical, fluorescence polarization (AID 1964).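 Also: purified POS-1 fused to maltose binding protein made in E. coli; potency of compounds blocking POS-1 binding to fluorescent RNA.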

A further test has as its target T3, Protein skinhead-1 (Caenorhabditis elegans, UniProt P34707).
T3 sequence (P34707 whole entry): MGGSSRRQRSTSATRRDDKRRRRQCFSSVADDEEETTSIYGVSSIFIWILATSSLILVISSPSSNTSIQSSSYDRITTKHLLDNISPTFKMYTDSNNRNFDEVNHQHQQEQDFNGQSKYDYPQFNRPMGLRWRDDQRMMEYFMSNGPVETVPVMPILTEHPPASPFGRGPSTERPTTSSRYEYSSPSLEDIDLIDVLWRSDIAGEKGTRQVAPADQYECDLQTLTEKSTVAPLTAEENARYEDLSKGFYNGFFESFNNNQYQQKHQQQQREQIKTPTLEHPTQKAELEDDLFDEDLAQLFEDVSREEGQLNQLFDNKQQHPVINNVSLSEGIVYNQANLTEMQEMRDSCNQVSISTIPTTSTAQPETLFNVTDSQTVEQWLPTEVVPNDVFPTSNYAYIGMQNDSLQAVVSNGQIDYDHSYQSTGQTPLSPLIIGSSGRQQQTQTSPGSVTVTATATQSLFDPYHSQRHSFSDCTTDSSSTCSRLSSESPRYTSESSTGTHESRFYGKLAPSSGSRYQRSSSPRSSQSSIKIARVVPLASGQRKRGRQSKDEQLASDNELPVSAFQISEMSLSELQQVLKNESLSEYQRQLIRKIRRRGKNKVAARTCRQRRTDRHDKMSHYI
It is filed as functional.

Another test deals with T4, Caspase-7 (Homo sapiens, UniProt P55210).
T4 sequence (P55210 whole entry): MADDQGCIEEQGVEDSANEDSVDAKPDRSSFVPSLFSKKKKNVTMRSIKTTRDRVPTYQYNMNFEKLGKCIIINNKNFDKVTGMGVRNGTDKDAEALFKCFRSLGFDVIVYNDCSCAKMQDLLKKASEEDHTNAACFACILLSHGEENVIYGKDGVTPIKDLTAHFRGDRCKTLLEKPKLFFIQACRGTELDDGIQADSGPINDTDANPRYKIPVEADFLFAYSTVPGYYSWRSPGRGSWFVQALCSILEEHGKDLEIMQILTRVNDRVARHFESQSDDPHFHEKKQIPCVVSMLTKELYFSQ
Briefly: human caspase-7 inhibitors, dose response, selectivity assay for caspase-6 inhibitor project, biochemical, DEVD-R110 fluorescence, cherry-pick (AID 743295). It is filed as […].

In test [5] the target is T5, Mannose-6-phosphate isomerase (Homo sapiens, UniProt P34949).
T5 sequence (P34949 whole entry): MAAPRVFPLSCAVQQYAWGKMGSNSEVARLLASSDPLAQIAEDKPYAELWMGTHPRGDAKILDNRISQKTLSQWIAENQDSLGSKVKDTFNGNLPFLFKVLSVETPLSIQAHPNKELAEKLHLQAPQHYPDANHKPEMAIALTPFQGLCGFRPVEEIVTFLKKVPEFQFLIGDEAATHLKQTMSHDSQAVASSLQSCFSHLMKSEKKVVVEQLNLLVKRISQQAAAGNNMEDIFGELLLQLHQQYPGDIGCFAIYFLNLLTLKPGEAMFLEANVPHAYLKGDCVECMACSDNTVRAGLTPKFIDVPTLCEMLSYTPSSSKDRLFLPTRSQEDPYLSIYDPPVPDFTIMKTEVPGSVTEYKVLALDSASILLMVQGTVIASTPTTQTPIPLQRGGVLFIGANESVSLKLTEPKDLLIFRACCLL
Briefly: human PMI inhibitors, high substrate, primary screen, biochemical, fluorescence intensity, high mannose 6-phosphate (AID 1220).

Test [6] concerns the target Serine/threonine-protein phosphatase PP1-alpha catalytic subunit (Homo sapiens, UniProt P62136). Briefly: PP1 phosphatase inhibitors, dose response, biochemical, fluorescence (AID 2394).
For test [7], the target named is T6, Sentrin-specific protease 8 (Homo sapiens, UniProt Q96LD8).
T6 sequence (Q96LD8 whole entry): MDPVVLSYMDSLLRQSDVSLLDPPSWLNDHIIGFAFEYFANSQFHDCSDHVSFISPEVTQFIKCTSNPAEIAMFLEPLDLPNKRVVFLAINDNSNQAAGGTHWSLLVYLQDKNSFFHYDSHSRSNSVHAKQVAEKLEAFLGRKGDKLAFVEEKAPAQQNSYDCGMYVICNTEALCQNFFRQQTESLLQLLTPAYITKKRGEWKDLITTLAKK
It counts as functional.

Serine/threonine-protein phosphatase PP1-alpha catalytic subunit, sequence (P62136 whole entry): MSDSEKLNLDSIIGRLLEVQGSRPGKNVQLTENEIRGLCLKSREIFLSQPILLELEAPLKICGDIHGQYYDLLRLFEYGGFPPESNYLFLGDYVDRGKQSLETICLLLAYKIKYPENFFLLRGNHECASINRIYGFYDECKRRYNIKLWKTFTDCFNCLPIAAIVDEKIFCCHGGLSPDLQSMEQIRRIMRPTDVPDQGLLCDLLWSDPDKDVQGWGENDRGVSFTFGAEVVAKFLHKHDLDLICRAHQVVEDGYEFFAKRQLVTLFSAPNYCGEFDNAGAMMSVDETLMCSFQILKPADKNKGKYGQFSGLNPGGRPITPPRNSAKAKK
Genome polyprotein, sequence (P29990 2492-3391 limits assumed): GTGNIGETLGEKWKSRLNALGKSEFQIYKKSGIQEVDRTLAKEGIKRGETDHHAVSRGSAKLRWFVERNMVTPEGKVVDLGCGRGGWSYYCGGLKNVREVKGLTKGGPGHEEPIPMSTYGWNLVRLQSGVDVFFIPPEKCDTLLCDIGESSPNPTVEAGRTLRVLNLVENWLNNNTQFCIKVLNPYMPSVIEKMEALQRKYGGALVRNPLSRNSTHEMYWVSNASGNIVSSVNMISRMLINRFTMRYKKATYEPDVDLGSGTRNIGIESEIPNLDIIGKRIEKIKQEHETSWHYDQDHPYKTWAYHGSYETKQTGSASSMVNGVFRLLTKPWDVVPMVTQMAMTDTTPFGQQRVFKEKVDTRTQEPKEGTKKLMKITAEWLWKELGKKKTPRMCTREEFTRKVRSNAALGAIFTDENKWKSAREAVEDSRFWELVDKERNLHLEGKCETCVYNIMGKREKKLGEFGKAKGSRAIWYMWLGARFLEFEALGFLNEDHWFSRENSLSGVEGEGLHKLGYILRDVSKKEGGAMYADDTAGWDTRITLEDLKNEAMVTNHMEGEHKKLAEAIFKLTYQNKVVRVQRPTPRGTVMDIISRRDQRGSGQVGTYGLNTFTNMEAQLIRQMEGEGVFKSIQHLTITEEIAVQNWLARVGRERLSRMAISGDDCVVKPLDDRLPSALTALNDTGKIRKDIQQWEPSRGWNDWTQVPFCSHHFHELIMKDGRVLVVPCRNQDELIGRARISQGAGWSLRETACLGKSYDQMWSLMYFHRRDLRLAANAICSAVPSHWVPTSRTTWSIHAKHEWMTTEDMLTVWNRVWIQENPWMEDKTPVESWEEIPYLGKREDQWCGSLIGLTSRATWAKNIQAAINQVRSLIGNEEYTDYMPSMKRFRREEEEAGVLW

In general, AC50 refers to the concentration at which the activity in the assay is half-maximal. Regarding `CCN(CC)CCOc1ccc2c(c1)C(=NNC(=O)c1ccccn1)c1cc(OCCN(CC)CC)ccc1-2`, the AC50 in test [1] was 109 µM (active).

What is called EC50 is the concentration that produces a half-maximal response. In general, IC50 refers to the concentration at which inhibition is half-maximal. For `O=C(O)c1ccc2c(c1)[C@@H]1C=CC[C@@H]1[C@H](c1ccccn1)N2`, the EC50 is > 150 µM (inactive) in [2], 31.1 µM (inconclusive) in test [3] and 4.61 µM (inconclusive) in [4]. Also, the concentration for half-maximal inhibition (IC50) on Genome polyprotein is 26.3 µM (active); on Protein skinhead-1 it was > 100 µM (inactive).

With `Oc1nc(Nc2ccc(F)cc2)cc2ccccc12`, the AC50 at Caspase-7 was 2.11 µM (active).

Turning to `CN(C)c1cc(N/N=C\c2ccccc2)nc(N(C)C)n1`, the IC50 was > 50 µM (not active) in test [5], > 67 µM (not active) in [6] and 368 nM (active) in test [7].
